Values joined by “and” are separate entries in the source; they are usually repeats but may differ in a detail not shown here. Equal entries are not always repeated.
Legend:
[1] = test system: U-138 MG (HTB-16) glioblastoma cancer cell line; assay: MTT cellular viability assay, HTB16; assay type: cell-based; details: HTB16 (glioma), 72 hours, ± standard deviation
Description: (§1) Cell lines were obtained from American Type Culture Collection (ATCC, Manassas, VA). […] Caco-2 (ATCC: HTB-37) colorectal cancer was grown in EMEM with 20% FBS and 1% penicillin/streptomycin. All cell lines were incubated at 37°C in 5% CO2 with passaging every 4–7 days. Cell culture media and supplements were obtained from ATCC, Atlanta Biologicals (Flowery Branch, GA), Mediatech (Tewksbury, MA), Fisher Scientific (Waltham, MA), Gibco (Gaithersburg, MD) and Sigma-Aldrich.
(§2) The MTT (3-(4,5-dimethylthiazol-2-yl)-2,5-diphenyltetrazolium bromide) cellular viability assay was performed in all three cancer cell lines and the non-cancer cell line. Following a protocol adapted from, cells were seeded at 5,000 cells per well in 96-well plates and incubated at 37°C in 5% CO2 in F-12K Medium or EMEM with FBS supplementation and 1% penicillin/streptomycin for 24 hours. Then, wells were treated in replicates of six according to a concentration series (500, 50, 5, 0.5, 0.05 μM) of specific platinum complexes for 72 hours. A negative control (media only), positive control (Triton X-100) and series of blanks were simultaneously performed. The MTT assay was run for 2 hours, then well contents were rapidly evacuated out and all wells were treated with MTT solubilization solution [10% Triton X-100 in acidic (0.1N HCl) isopropanol] for 15 minutes before the plates were read using a BioTek Synergy HT microplate plate reader (570 nm and 690 nm absorbance wavelengths). Reagents, cell culture media and supplements were obtained from ATCC, Atlanta Biologicals, Mediatech, Fisher Scientific, Gibco and Sigma-Aldrich.
(§3) GraphPad Prism v6 (La Jolla, CA) was used for all statistical analysis. Nuclear fraction platinum uptake as a total percent of combined nuclear and cytosolic uptake was analyzed using a one-way ANOVA (Brown-Forsyth test; p ≤ 0.05). IC50 values were calculated in Prism using the sigmoidal, 4PL, x is log(concentration) analysis feature or were calculated from Prism derived values using the equation y = mx + b. MTT assay standard deviation values were calculated using ED50plus v1.0 online software. AEP threshold data were analyzed by two-way ANOVA (Dunnett’s multiple comparisons test; p ≤ 0.05) and hair cell quantification data by two-way ANOVA (Tukey’s multiple comparisons test; p ≤ 0.05). AEP temporary threshold shifts (TTS) were calculated by subtracting the mean vehicle threshold for each frequency from each treatment threshold. TTS data were averaged across frequencies for each treatment and were analyzed by one-way ANOVA (Tukey’s multiple comparisons test; p ≤ 0.05).

[2] = test system: A549 lung cancer cell line; assay: MTT cellular viability assay, A549; assay type: cell-based; details: 72 hours, ± standard deviation
Description: as §1, §2, §3

[3] = test system: zebrafish saccule hair cells; assay: Hair cell quantification, saccule; assay type: in vivo, Danio rerio; details: 25 mg/kg i.p., 48 hours; for effect on hair cell density in four regions of the saccule compared to vehicle: 5, 25, 50, 75% regions
Description: (§4) Zebrafish (Danio rerio) were purchased from a commercial supplier (Segrest Farms, Gibsonton, FL) and maintained in the animal facility of Western Kentucky University according to a protocol approved by the Institutional Animal Care and Use Committee. All zebrafish used in this study were a mix of male and female adult animals at least 6 months of age and were maintained according to standard methods.
(§5) After injection, fish were returned to holding tanks for either 24 or 48 hours and then subjected to hearing tests followed by hair cell quantification analysis.
Hair cell counts were performed from specific regions of the zebrafish saccule and utricle using established procedures. […] Prior to dissection, heads were rinsed three times for 10 minutes each at room temperature in phosphate buffer (pH 7.4, LabChem, Pittsburgh, PA) and the inner ear epithelia (saccule and utricle) were then carefully dissected out and trimmed. […] Tissue samples were then placed on glass slides and nuclei were labelled with Prolong Gold antifade reagent (4’,6-diamidino-2-phenylindole [DAPI], Life Technologies, Carlsbad, CA) and a cover-slip was placed over the samples for microscopy.
Saccule and utricle samples were viewed through the FITC filter of a Zeiss Axioplan2 epifluorescence microscope (Carl Zeiss, Jena, Germany) at 20X magnification and were then photographed using an AxioCam MRm camera. Cell counts were made from four regions of the saccule (5%, 25%, 50%, 75%) along the rostral-caudal length of the organ by placing a 50 μm x 50 μm box at each location and using the microscope cell counter feature. In the utricular samples, cell counts were made from three equidistant 50 μm x 50 μm boxes in both the extrastriolar and striolar regions.
as §3

[4] = test system: IMR-90 lung fibroblast control cell line; assay: MTT cellular viability assay, IMR90; assay type: cell-based; details: IMR90 (fibroblast, non-cancer), 72 hours, ± standard deviation
Description: as §1, §2, §3

[5] = test system: zebrafish hearing thresholds; assay: Auditory evoked potential (AEP) testing in zebrafish inner ear model; assay type: in vivo, Danio rerio; details: 25 mg/kg i.p.; for AEP hearing threshold, significance of pairwise comparison against vehicle / AEP hearing threshold, significance of pairwise comparison against cisplatin: 48 h; for mean (± S.E.) temporary threshold shift (TTS), averaged across frequencies: 48 hours, vehicle threshold subtracted
Description: as §4, §5
Auditory evoked potential (AEP) testing was performed on individual fish according to standard protocols. […] After harness placement was complete, three 27 gauge stainless steel electrodes (Rochester Electro-Medical, Inc., Lutz, FL) were inserted approximately 2 mm subdermally to record AEPs. A reference electrode was inserted into the medial dorsal surface of the head, a recording electrode directly over the brainstem and a ground electrode in the tail musculature. Sound stimuli (tone pips) were presented to each fish at 8 frequencies (100, 250, 400, 600, 800, 1000, 1500 and 3000 Hz) and AEP waveforms were collected using a TDT System III physiology apparatus (Tucker-Davis Technologies Inc., Alachua, FL) running SigGen and BioSig software. Auditory stimuli were passed through a P1000 power amplifier (Hafler, Port Coquitlam, BC) and presented with a University Sound UW-30 underwater speaker (Electro-Voice, Fairport, NY). Sound pressure levels were confirmed using a Type 10CT hydrophone (G.R.A.S., Holte, Denmark) placed adjacent to the mesh harness. Auditory thresholds were determined in 5 dB increments by visual inspection of AEP waveforms.
as §3

[6] = test system: Caco-2 colorectal cancer cell line; assay: MTT cellular viability assay, Caco2; assay type: cell-based; details: 72 hours, ± standard deviation
Description: as §1, §2, §3

[7] = test system: 5'-GMP; assay: Kinetic 5'-GMP assay (1H NMR, rate of reaction of platinum complex with 5'-GMP); assay type: biochemical; details: D2O, pH 7, 25°C; for Rate constant for the reaction of 5'-GMP with the platinum(II) complex: excess platinum, fitted first order in each reactant
Description: The reaction of each platinum compound with 5'-GMP (Acros) was monitored using ^1H NMR spectroscopy to observe the disappearance of the H8 signal of the unreacted 5'-GMP at ≈8 ppm and the appearance of a product signal ≈0.5–1.0 ppm downfield of the unreacted 5'-GMP. The reaction was conducted with excess platinum compound present in each case. A 10 mM solution of 5'-GMP and a 10–20 mM solution of the platinum(II) compound were prepared separately in D2O. The pH (uncorrected for the effects of deuterium) of each solution was adjusted to 7, and the samples were equilibrated to 25°C in a water bath. Aliquots of the two solutions were combined and placed in an NMR tube; typically, the final concentrations of platinum was 5–18 mM and the concentration of 5'-GMP was 1 mM (except for the [Pt(dien)Cl]^+ reaction, where it was 0.5 mM). Samples were maintained at 25°C throughout the NMR experiment. The H8 resonances were integrated and the data was fitted to an equation that was first order in each reactant using DynaFit to determine rate constants. At least two runs were conducted for each platinum compound using fresh samples.

Row | SMILES | IC50 [1] [µM] | IC50 [2] [µM] | effect on hair cell density in four regions of the saccule compared to vehicle [3] | IC50 [4] [µM] | AEP hearing threshold, significance of pairwise comparison against vehicle ([5]; 100 Hz) | AEP hearing threshold, significance of pairwise comparison against vehicle ([5]; 250 Hz) | AEP hearing threshold, significance of pairwise comparison against vehicle ([5]; 400 Hz) | AEP hearing threshold, significance of pairwise comparison against vehicle ([5]; 600 Hz) | AEP hearing threshold, significance of pairwise comparison against vehicle ([5]; 800 Hz) | AEP hearing threshold, significance of pairwise comparison against vehicle ([5]; 1000 Hz) | AEP hearing threshold, significance of pairwise comparison against vehicle ([5]; 1500 Hz) | AEP hearing threshold, significance of pairwise comparison against vehicle ([5]; 3000 Hz) | IC50 [6] [µM] | Relative rate (rate constant divided by the rate constant for [Pt(dien)Cl]^+) [7] | Rate constant for the reaction of 5'-GMP with the platinum(II) complex [7] | mean (± S.E.) temporary threshold shift (TTS), averaged across frequencies [5] | AEP hearing threshold, significance of pairwise comparison against cisplatin ([5]; 100 Hz) | AEP hearing threshold, significance of pairwise comparison against cisplatin ([5]; 250 Hz) | AEP hearing threshold, significance of pairwise comparison against cisplatin ([5]; 400 Hz) | AEP hearing threshold, significance of pairwise comparison against cisplatin ([5]; 600 Hz) | further results
1 | N.N.[Cl][Pt][Cl] [Cisplatin, cisplatin] | 3.11 ± 0.06 | 9.79 ± 0.63 | hair cell density reduction in the 5, 25 and 50% regions | 0.53 ± 0.94 | ns (ns, p > 0.05) | ns (ns, p > 0.05) | **** (**** p ≤ 0.0001) | *** (*** p ≤ 0.001) | *** (*** p ≤ 0.001) | **** (**** p ≤ 0.0001) | **** (**** p ≤ 0.0001) | ns (ns, p > 0.05) |  |  |  |  |  |  |  |  | saccule hair cell density, % of control ([3]; 5% location along rostral-caudal axis): 69.5 % of control; saccule hair cell density, % of control ([3]; 25% location along rostral-caudal axis): 41.4 % of control; saccule hair cell density, % of control ([3]; 50% location along rostral-caudal axis): 47.7 % of control
2 | [NH3+][Pt-2]([NH3+])([Cl])[n+]1ccccc1 (stereo not shown) [Pyriplatin, pyriplatin] | 66.3 ± 0.74 | 89.28 ± 0.46 | no hair cell reduction | 16.1 ± 1.13 | * (* p ≤ 0.05) | ns (ns, p > 0.05) | ns (ns, p > 0.05) | ns (ns, p > 0.05) | ns (ns, p > 0.05) | ns (ns, p > 0.05) | ns (ns, p > 0.05) | ns (ns, p > 0.05) | 20.9 ± 0.69 | 0.073 | 2.9 (+/- 0.7) x 10^−2 M^-1s^-1 | 6 dB and 6.2 ± 2.1 dB | ns (ns, p > 0.05) | ns (ns, p > 0.05) | ns (ns, p > 0.05) | ns (ns, p > 0.05) | Rate constant for the reaction of 5'-GMP with the platinum(II) complex ([7]; listed as pyriplatin): 2.9 ± 0.7 x 10^−2 M^-1s^-1; AEP hearing threshold, significance of pairwise comparison against cisplatin ([5]; 800 Hz): ns (ns, p > 0.05); AEP hearing threshold, significance of pairwise comparison against cisplatin ([5]; 1000 Hz): ns (ns, p > 0.05); AEP hearing threshold, significance of pairwise comparison against cisplatin ([5]; 1500 Hz): * (* p ≤ 0.05); AEP hearing threshold, significance of pairwise comparison against cisplatin ([5]; 3000 Hz): ns (ns, p > 0.05)
3 | CC[N+]1(CC)CC[NH+]2CC[NH2+][Pt-2]21[Cl] (stereo not shown) [[Pt(Et2dien)Cl]^+, Pt(N,N-diethyldiethylenetriamine)Cl] |  |  | no significant reduction in hair cell bundles |  | *** (*** p ≤ 0.001) | ns (ns, p > 0.05) | **** (**** p ≤ 0.0001) | **** (**** p ≤ 0.0001) | **** (**** p ≤ 0.0001) | **** (**** p ≤ 0.0001) | ns (ns, p > 0.05) | ** (** p ≤ 0.01) |  | 0.00012 | 4.64 ± 0.08 x 10^−5 M^-1s^-1 and 4.64 (+/- 0.08) x 10^−5 M^-1s^-1 | 11.1 ± 2.5 dB | ns (ns, p > 0.05) | ns (ns, p > 0.05) | ns (ns, p > 0.05) | ns (ns, p > 0.05) | AEP hearing threshold, significance of pairwise comparison against cisplatin ([5]; 800 Hz): * (* p ≤ 0.05); AEP hearing threshold, significance of pairwise comparison against cisplatin ([5]; 1000 Hz): ns (ns, p > 0.05); AEP hearing threshold, significance of pairwise comparison against cisplatin ([5]; 1500 Hz): ns (ns, p > 0.05); AEP hearing threshold, significance of pairwise comparison against cisplatin ([5]; 3000 Hz): ns (ns, p > 0.05)
4 | CC[N+]1(CC)CC[NH+]2CC[NH][Pt-2]21[Cl] (stereo not shown) [[Pt(Et2dien)Cl]^+, Pt(N,N-diethyldiethylenetriamine)Cl] | 48 ± 11.8 | 67.3 ± 0.36 |  | 7.13 ± 0.98 |  |  |  |  |  |  |  |  | 72.5 ± 3.37 |  |  |  |  |  |  |  | 

Reference: article PMC5841658, “Anti-cancer characteristics and ototoxicity of platinum(II) amine complexes with only one leaving ligand” (PLoS ONE, 2018)
